In the OligoGym collection:
HELM strings list units from the 5' end as sugar, base in round brackets, then linkage (d deoxyribose, r ribose, m 2'-O-methyl, p phosphodiester). Strings are as the collection lists them; they lack the last nucleoside at the 3' end of the tested compound. [moe] = 2'-O-(2-methoxyethyl) (MOE); [sp] = phosphorothioate linkage; [m5C] = 5-methylcytosine

The substances below were run against ATXN2 (assay: mouse, dose not given). Conditions: ASO.

Substance | 3 h FOB score
RNA1{[moe](T)[sp].[moe]([m5C])p.[moe](A)p.[moe](G)p.[moe](A)p.d([m5C])[sp].d(T)[sp].d(T)[sp].d([m5C])[sp].d(T)[sp].d(T)[sp].d(G)[sp].d(T)[sp].d(T)[sp].d(G)[sp].[moe](T)p.[moe](T)p.[moe](G)[sp].[moe](T)}$$$$ (last 3' nucleoside missing) | 2 score 0-7
RNA1{[moe](T)[sp].[moe]([m5C])p.[moe](A)p.[moe](T)p.[moe](G)p.d(G)[sp].d([m5C])[sp].d(T)[sp].d([m5C])[sp].d([m5C])[sp].d(A)[sp].d(A)[sp].d(T)[sp].d(A)[sp].d(T)[sp].[moe]([m5C])p.[moe](G)p.[moe](G)[sp].[moe]([m5C])}$$$$ (last 3' nucleoside missing) | 2.25 score 0-7
RNA1{[moe](T)[sp].[moe]([m5C])p.[moe](A)p.[moe](T)p.[moe](T)p.d(T)[sp].d(T)[sp].d(A)[sp].d(T)[sp].d(T)[sp].d([m5C])[sp].d(T)[sp].d(G)[sp].d([m5C])[sp].d(T)[sp].[moe](T)p.[moe](T)p.[moe](G)[sp].[moe]([m5C])}$$$$ (last 3' nucleoside missing) | 2 score 0-7
RNA1{[moe](T)[sp].[moe]([m5C])p.[moe](A)p.[moe](T)p.[moe]([m5C])[sp].d(A)[sp].d(T)[sp].d(T)[sp].d(T)[sp].d(T)[sp].d([m5C])[sp].d([m5C])[sp].d(A)[sp].[moe](G)p.[moe](G)p.[moe](G)[sp].[moe]([m5C])}$$$$ (last 3' nucleoside missing) | 1 score 0-7
RNA1{[moe](T)[sp].[moe]([m5C])p.[moe](G)p.[moe](T)p.[moe](A)p.d(T)[sp].d(G)[sp].d(T)[sp].d(T)[sp].d(T)[sp].d(G)[sp].d(T)[sp].d([m5C])[sp].d(T)[sp].d(G)[sp].[moe](T)p.[moe]([m5C])p.[moe](T)[sp].[moe](T)}$$$$ (last 3' nucleoside missing) | 6.25 score 0-7
RNA1{[moe](T)[sp].[moe]([m5C])p.[moe](T)p.[moe](A)p.[moe](T)[sp].d(T)[sp].d(T)[sp].d([m5C])[sp].d(T)[sp].d(T)[sp].d(T)[sp].d(G)[sp].d(T)[sp].[moe]([m5C])p.[moe]([m5C])p.[moe](A)[sp].[moe](G)}$$$$ (last 3' nucleoside missing) | 5 score 0-7
RNA1{[moe](T)[sp].[moe]([m5C])p.[moe](T)p.[moe](A)p.[moe](T)p.d(T)[sp].d(T)[sp].d([m5C])[sp].d(T)[sp].d(T)[sp].d(T)[sp].d(G)[sp].d(T)[sp].d([m5C])[sp].d([m5C])[sp].[moe](A)p.[moe](G)p.[moe](G)[sp].[moe](A)}$$$$ (last 3' nucleoside missing) | 6.5 score 0-7
RNA1{[moe](T)[sp].[moe]([m5C])p.[moe](T)p.[moe](G)[sp].[moe](T)[sp].d(A)[sp].d([m5C])[sp].d(T)[sp].d(T)[sp].d(T)[sp].d(T)[sp].d([m5C])[sp].d(T)[sp].d([m5C])[sp].d(A)[sp].[moe](T)p.[moe](G)p.[moe](T)[sp].[moe](G)}$$$$ (last 3' nucleoside missing) | 1 score 0-7
RNA1{[moe](T)[sp].[moe]([m5C])p.[moe](T)p.[moe](G)p.[moe](T)[sp].d(A)[sp].d([m5C])[sp].d(T)[sp].d(T)[sp].d(T)[sp].d(T)[sp].d([m5C])[sp].d(T)[sp].[moe]([m5C])p.[moe](A)p.[moe](T)[sp].[moe](G)}$$$$ (last 3' nucleoside missing) | 0.5 score 0-7
RNA1{[moe](T)[sp].[moe]([m5C])p.[moe](T)p.[moe](G)p.[moe](T)[sp].d(A)[sp].d([m5C])[sp].d(T)[sp].d(T)[sp].d(T)[sp].d(T)[sp].d([m5C])[sp].d(T)[sp].d([m5C])[sp].d(A)[sp].[moe](T)p.[moe](G)p.[moe](T)[sp].[moe](G)}$$$$ (last 3' nucleoside missing) | 0 score 0-7
RNA1{[moe](T)[sp].[moe]([m5C])p.[moe](T)p.[moe](G)p.[moe](T)p.[moe](A)p.d([m5C])[sp].d(T)[sp].d(T)[sp].d(T)[sp].d(T)[sp].d([m5C])[sp].d(T)[sp].d([m5C])[sp].d(A)[sp].d(T)[sp].[moe](G)p.[moe](T)[sp].[moe](G)}$$$$ (last 3' nucleoside missing) | 1 score 0-7
RNA1{[moe](T)[sp].[moe]([m5C])p.[moe](T)p.[moe](G)p.[moe](T)p.d(A)[sp].d([m5C])[sp].d(T)[sp].d(T)[sp].d(T)[sp].d(T)[sp].d([m5C])[sp].d(T)[sp].d([m5C])[sp].d(A)[sp].[moe](T)p.[moe](G)p.[moe](T)[sp].[moe](G)}$$$$ (last 3' nucleoside missing) | 0 score 0-7
RNA1{[moe](T)[sp].[moe]([m5C])p.[moe](T)p.[moe](G)p.[moe]([m5C])[sp].d(T)[sp].d(A)[sp].d(A)[sp].d([m5C])[sp].d(T)[sp].d(G)[sp].d(G)[sp].d(T)[sp].[moe](T)p.[moe](T)p.[moe](G)[sp].[moe]([m5C])}$$$$ (last 3' nucleoside missing) | 2 score 0-7
RNA1{[moe](T)[sp].[moe]([m5C])p.[moe](T)p.[moe](G)p.[moe]([m5C])p.d(T)[sp].d(A)[sp].d(A)[sp].d([m5C])[sp].d(T)[sp].d(G)[sp].d(G)[sp].d(T)[sp].d(T)[sp].d(T)[sp].[moe](G)p.[moe]([m5C])p.[moe]([m5C])[sp].[moe]([m5C])}$$$$ (last 3' nucleoside missing) | 3 score 0-7
RNA1{[moe](T)[sp].[moe]([m5C])p.[moe](T)p.[moe](G)p.d(T)[sp].d(A)[sp].d([m5C])[sp].d(T)[sp].d(T)[sp].d(T)[sp].d(T)[sp].d([m5C])[sp].d(T)[sp].d([m5C])[sp].[moe](A)p.[moe](T)p.[moe](G)p.[moe](T)[sp].[moe](G)}$$$$ (last 3' nucleoside missing) | 0 score 0-7
RNA1{[moe](T)[sp].[moe]([m5C])p.[moe](T)p.[moe](T)p.[moe](G)p.d(T)[sp].d(T)[sp].d(G)[sp].d(T)[sp].d(T)[sp].d(G)[sp].d(T)[sp].d(T)[sp].d(T)[sp].d(A)[sp].[moe]([m5C])p.[moe](A)p.[moe](T)[sp].[moe](T)}$$$$ (last 3' nucleoside missing) | 3 score 0-7
RNA1{[moe](T)[sp].[moe]([m5C])p.[moe](T)p.[moe]([m5C])p.[moe](T)[sp].d(A)[sp].d(T)[sp].d(T)[sp].d(T)[sp].d([m5C])[sp].d(T)[sp].d(T)[sp].d(T)[sp].[moe](G)p.[moe](T)p.[moe]([m5C])[sp].[moe]([m5C])}$$$$ (last 3' nucleoside missing) | 1 score 0-7
RNA1{[moe](T)[sp].[moe]([m5C])p.[moe](T)p.[moe]([m5C])p.[moe](T)p.d(A)[sp].d(T)[sp].d(T)[sp].d(T)[sp].d([m5C])[sp].d(T)[sp].d(T)[sp].d(T)[sp].d(G)[sp].d(T)[sp].[moe]([m5C])p.[moe]([m5C])p.[moe](A)[sp].[moe](G)}$$$$ (last 3' nucleoside missing) | 6.75 score 0-7
RNA1{[moe](T)[sp].[moe]([m5C])p.[moe](T)p.[moe]([m5C])p.[moe]([m5C])[sp].d(A)[sp].d(T)[sp].d(T)[sp].d(A)[sp].d(T)[sp].d(T)[sp].d(T)[sp].d([m5C])[sp].[moe](T)p.[moe](T)p.[moe]([m5C])[sp].[moe](A)}$$$$ (last 3' nucleoside missing) | 1 score 0-7
RNA1{[moe](T)[sp].[moe]([m5C])p.[moe](T)p.[moe]([m5C])p.[moe]([m5C])p.d(A)[sp].d(T)[sp].d(T)[sp].d(A)[sp].d(T)[sp].d(T)[sp].d(T)[sp].d([m5C])[sp].d(T)[sp].d(T)[sp].[moe]([m5C])p.[moe](A)p.[moe]([m5C])[sp].[moe](G)}$$$$ (last 3' nucleoside missing) | 0.75 score 0-7
RNA1{[moe](T)[sp].[moe]([m5C])p.[moe]([m5C])p.[moe](A)p.[moe](A)p.d(G)[sp].d(T)[sp].d(A)[sp].d(A)[sp].d([m5C])[sp].d(A)[sp].d(G)[sp].d(T)[sp].d(G)[sp].d(T)[sp].[moe](A)p.[moe](G)p.[moe](A)[sp].[moe](A)}$$$$ (last 3' nucleoside missing) | 4 score 0-7
RNA1{[moe](T)[sp].[moe]([m5C])p.[moe]([m5C])p.[moe](A)p.[moe](A)p.d(T)[sp].d(T)[sp].d(T)[sp].d([m5C])[sp].d(A)[sp].d(G)[sp].d(A)[sp].d([m5C])[sp].d(T)[sp].d(T)[sp].[moe]([m5C])p.[moe](T)p.[moe](T)[sp].[moe](G)}$$$$ (last 3' nucleoside missing) | 2 score 0-7
RNA1{[moe](T)[sp].[moe]([m5C])p.[moe]([m5C])p.[moe](A)p.[moe](T)p.d(T)[sp].d(A)[sp].d(T)[sp].d(T)[sp].d(T)[sp].d([m5C])[sp].d(T)[sp].d(T)[sp].d([m5C])[sp].d(A)[sp].[moe]([m5C])p.[moe](G)p.[moe](T)[sp].[moe](T)}$$$$ (last 3' nucleoside missing) | 1 score 0-7
RNA1{[moe](T)[sp].[moe]([m5C])p.[moe]([m5C])p.[moe](T)p.[moe](A)[sp].d(T)[sp].d([m5C])[sp].d(A)[sp].d(T)[sp].d([m5C])[sp].d(A)[sp].d(T)[sp].d(T)[sp].[moe](T)p.[moe](T)p.[moe]([m5C])[sp].[moe]([m5C])}$$$$ (last 3' nucleoside missing) | 1 score 0-7
RNA1{[moe](T)[sp].[moe]([m5C])p.[moe]([m5C])p.[moe](T)p.[moe](A)p.d(T)[sp].d([m5C])[sp].d(A)[sp].d(T)[sp].d([m5C])[sp].d(A)[sp].d(T)[sp].d(T)[sp].d(T)[sp].d(T)[sp].[moe]([m5C])p.[moe]([m5C])p.[moe](A)[sp].[moe](G)}$$$$ (last 3' nucleoside missing) | 3.75 score 0-7
RNA1{[moe](T)[sp].[moe]([m5C])p.[moe]([m5C])p.[moe](T)p.[moe](T)p.d(G)[sp].d(T)[sp].d(T)[sp].d(G)[sp].d(T)[sp].d(A)[sp].d(T)[sp].d(G)[sp].d(G)[sp].d(T)[sp].[moe](A)p.[moe](A)p.[moe](T)[sp].[moe](T)}$$$$ (last 3' nucleoside missing) | 5 score 0-7
RNA1{[moe]([m5C])[sp].[moe](A)p.[moe](G)p.[moe](A)p.[moe](A)p.d(A)[sp].d(G)[sp].d([m5C])[sp].d(T)[sp].d(G)[sp].d(T)[sp].d(G)[sp].d(T)[sp].d(G)[sp].d(T)[sp].[moe](T)p.[moe](T)p.[moe](A)[sp].[moe](A)}$$$$ (last 3' nucleoside missing) | 6 score 0-7
